Consider 3 compounds from US9206427B2, “Compositions, kits, and methods for the modulation of immune responses using galectin-1” (Dana-Farber Cancer Institute, Inc., priority 2007, dated 2015).

For series [1], the system named is activated T cells. Description: Analysis of regulatory T cells (CD4+ CD25high FOXP3+) by triple-color flow cytometry. Type of series: cell-based, human. Particulars: activated T cells treated with rGal1 or rGal1 and TDG, 24 hours; FIG. 3E. How it is done:
T cells were purified, activated with anti-CD3- and anti-CD28-coated latex beads and treated with rGal1, rGal1 and TDG or left untreated for 24 hours. Thereafter, cells were stained with CD4-FITC and CD25-APC, washed, fixed, permeabilized and stained with FOXP3-PE antibody or rat IgG2b isotype control as previously described (Zorn et al. (2006) Blood 108, 1571-1579) (Human Regulatory T-cell staining kit, eBioscience, San Diego, Calif.). CD4^+ CD25^high FOXP3 Treg cells were identified and quantified using Beckman Cytomics FC500 flow cytometer as previously described (Zorn et al. (2006) Blood 108, 1571-1579).
(In general: A flow cytometer gives signals particle by particle.)

The next series deals with normal activated T-cells. Description: rGal1-induced apoptosis of activated T cells (FITC-annexin V and PI double staining). It is filed as cell-based, human. Particulars: activated T cells treated with rGal1 in the presence or absence of TDG; FIG. 4. How it is done:
Activated T-cells were either untreated or treated with rGal1 in the presence or absence of TDG. Thereafter, apoptosis was assessed by FITC-annexin V and PI double staining. The histograms (left panels) are representative of 3 separate experiments that were averaged to obtain the percent positive cells in the bar graphs (right panels).
Recombinant Gal1 was obtained and purified essentially as described (Toscano et al. (2006) J Immunol 176, 6323-6332). T cells were purified as described above and simultaneously activated with anti-CD3-(0.1 μg/mL) and anti-CD28-(0.5 μg/mL) coated latex beads (Invitrogen) and treated with rGal1 (20 μM) in RPMI 1640 medium containing 10% fetal bovine serum and 1 mM β-ME alone or rGal1 and the Gal1 inhibitor, thiodigalactoside (TDG, 100 mM) (Rabinovich et al. (1999) J Exp Med 190, 385-397) or left untreated for 16 hours. Supernatants were then analyzed for IL-4, IL-5, IL-10, and IL-13 using cytometric bead array (CBA) Flex Set beads according to manufacturer's protocol (BD Biosciences, San Jose, Calif.). […] Thereafter, the PE detection reagent was added and samples were incubated for an additional 2 hours, washed and analyzed using FACS Aria Flow Cytometer (BD Biosciences). Results were captured with FACS Diva software and analyzed with the FCAP1.1 program (BD Biosciences). […]

Series [2] has as its system activated T cells. Description: Th2 cytokine production by rGal1-treated activated T cells (cytometric bead array). The note with it: anti-CD3/anti-CD28 activated T cells, rGal1 20 μM, TDG 100 mM, 16 hours; FIG. 3D. It is filed as cell-based, human. How it is done: Recombinant Gal1 was obtained and purified essentially as described (Toscano et al. (2006) J Immunol 176, 6323-6332). T cells were purified as described above and simultaneously activated with anti-CD3-(0.1 μg/mL) and anti-CD28-(0.5 μg/mL) coated latex beads (Invitrogen) and treated with rGal1 (20 μM) in RPMI 1640 medium containing 10% fetal bovine serum and 1 mM β-ME alone or rGal1 and the Gal1 inhibitor, thiodigalactoside (TDG, 100 mM) (Rabinovich et al. (1999) J Exp Med 190, 385-397) or left untreated for 16 hours. Supernatants were then analyzed for IL-4, IL-5, IL-10, and IL-13 using cytometric bead array (CBA) Flex Set beads according to manufacturer's protocol (BD Biosciences, San Jose, Calif.). In brief, multiplexed antibody-conjugated beads were incubated with culture supernatants or serial dilutions of cytokine standards for 1 hour. Thereafter, the PE detection reagent was added and samples were incubated for an additional 2 hours, washed and analyzed using FACS Aria Flow Cytometer (BD Biosciences). Results were captured with FACS Diva software and analyzed with the FCAP1.1 program (BD Biosciences).

The test system of the next series is Th1-dependent responses. The note with it: cited from earlier work; for Th1-dependent responses: murine models of chronic inflammatory / autoimmune disorders.
Another series deals with Gal1. The experiment in a line: RNA-interference mediated Gal1 knock-down in HD-MY-Z cells (immunoblot). Type of series: cell-based, human. The note with it: HD-MY-Z cells transduced with pSIREN-RetroQ vector; FIG. 3A. The text has this:
DLBCL and cHL cell lines were maintained as previously described (Mathas et al. (2002) Embo J 21, 4104-4113; Polo et al. (2007) Proc Natl Acad Sci USA 104, 3207-3212). Cells were lysed, size-fractionated on NuPAGE Novex 4-12% Bis-Tris Gels (Invitrogen, Carlsbad, Calif.), and transferred to PVDF membranes (Millipore Corp., Bedford, Mass.). Membranes were immunostained with purified Gal1 rabbit IgG (Rubinstein et al. (2004) Cancer Cell 5, 241-251) and HRP-conjugated donkey anti-rabbit antibody (GE Healthcare, Piscataway, N.J.) and developed using a chemiluminescent method (ECL, GE Healthcare).
Gal1 specific siRNA was designed using siRNA Selection Program (Yuan et al. (2004) Nucleic Acids Res 32, W130-134) (available on the World Wide Web at jura.wi.mit.edu/bioc/siRNAext/), synthesized as single-stranded DNA oligonucleotides by Integrated DNA Technologies (IDT, Inc., Coralville, Iowa) and annealed. […]
For orientation: Immunoblotting shows a protein as a band on a membrane.

For series [3], the system named is activated T cells co-cultured with HD-MY-Z cells. Description: Viable T cells after co-culture with Gal1 shRNA or SCR shRNA HD-MY-Z cHL cells (Annexin-V, CD3, CD4 flow cytometry). Particulars: PHA-activated T cells, 6 hours co-culture, Gal1 shRNA versus SCR shRNA HD-MY-Z; FIG. 3B. It is filed as cell-based, human. How it is done: 1. Co-culture. Peripheral blood mononuclear cells (PBMCs) were obtained from normal blood donors by Ficoll-Hypaque (GE Healthcare) gradient centrifugation. Thereafter, T cells were purified using Pan T Cell Isolation Kit II (Miltenyi Biotec, Auburn, Calif.) and activated with 1 μg/mL PHA (Sigma-Aldrich) for 64 hours. 1×10^6 of activated T cells were then co-cultured with monolayers (3×10^6 cells) of HD-MY-Z cells expressing either scrambled shRNA or Gal1 specific shRNA for 6 hours at 37° C.
2. Analyses of viable T cells. Following co-culture, all cells were harvested and sequentially stained with CD3-PE and CD4-PE-Cy5 (Beckman Coulter, Fullerton, Calif.) followed by Annexin V-FITC and analyzed with a Beckman Cytomics FC500 flow cytometer. The numbers of viable (annexin V-) and (propidium iodide-) CD3^+ and CD4^+ T cells in Gal1 shRNA or scrambled shRNA HD-MY-Z/T-cell co-cultures were then compared.

For a further series, the system named is HD-MY-Z cells. The experiment in a line: Proliferation rate and viability of transduced HD-MY-Z cells. It is filed as cell-based, human. The note with it: after Gal1 knockdown. An excerpt: Gal1 specific siRNA was designed using siRNA Selection Program (Yuan et al. (2004) Nucleic Acids Res 32, W130-134) (available on the World Wide Web at jura.wi.mit.edu/bioc/siRNAext/), synthesized as single-stranded DNA oligonucleotides by Integrated DNA Technologies (IDT, Inc., Coralville, Iowa) and annealed. Gal1-specific oligonucleotide (Gal1 RNAi, […] (SEQ ID NO: 12) or scrambled oligonucleotide (SCR, […] (SEQ ID NO: 13) were ligated into the linearized pSIREN-RetroQ retroviral vector (BD Clontech, Mountain View, Calif.). Generation of recombinant retrovirus and infection of HD-MY-Z cells was performed as previously described (Juszczynski et al. (2006) Mol Cell Biol 26, 5348-5359). After infection, cells were subjected to puromycin selection (0.5 μg/mL) and subcloning by limiting dilution. Thereafter, whole-cell extracts of obtained subclones were prepared and screened for Gal1 expression by immunoblotting as described above.

Series [4] has as its system CD4+ T cells co-cultured with HD-MY-Z cells. Description: T-bet and GATA-3 expression in co-cultured CD4+ T cells (QPCR). It is filed as cell-based, human. The note with it: CD4+ cells after 24-48 hours co-culture, Gal1 shRNA versus SCR shRNA HD-MY-Z; FIG. 3C. As to the method: 3. Analyses of T-bet and GATA-3 expression in co-cultured CD4^+ T cells. After PHA-activated T-cells were co-cultured with HD-MY-Z cells expressing either scrambled shRNA or Gal1 specific shRNA for 24-48 hours, cells were collected and non-viable cells were depleted by Ficoll-Hypaque gradient centrifugation. Remaining viable cells were washed, incubated with CD4 MACS microbeads and purified using a MACS LS column according to the manufacturer's protocol (Miltenyi Biotec). Thereafter, RNA was obtained from the isolated CD4^+ cells and cDNA was synthesized from total RNA (3 μg) as described above. GATA-3, T-bet and GAPDH (housekeeping control) transcript abundance was evaluated by QPCR using Power SYBR green PCR Master Mix (Applied Biosystems, Foster City, Calif.), GAPDH primers listed above and the following GATA3 and T-bet primers: GATA3, Forward: […] (SEQ ID NO: 14); GATA3, Reverse: ACACCTGGCTCCCGTGGT (SEQ ID NO: 15); T-bet, Forward: […] (SEQ ID NO: 16); T-bet, Reverse: […] (SEQ ID NO: 17). PCR and transcript abundance analysis was performed as described above. GATA-3 and T-bet expression in purified CD4^+ cells from SCR shRNA and Gal1 shRNA HD-MY-Z/T-cell cocultures were then compared.

Read-outs that look alike come from different tables or passages of the source.

As to `OC[C@H]1O[C@@H](S[C@@H]2O[C@H](CO)[C@H](O)[C@H](O)[C@H]2O)[C@H](O)[C@@H](O)[C@H]1O` [TDG, thiodigalactoside, reference compound], the “CD4+ CD25high FOXP3+ Treg population” value with activated T cells [1] is listed as “completely blocked this effect”. Besides, the “apoptosis of total activated T cells” value in the series on normal activated T-cells is “completely blocked rGal1-induced apoptosis”. Further, in the series with activated T cells [2], the IL-4 in supernatants entry is reported as “specifically blocked this effect”, the IL-5 in supernatants result is listed as “specifically blocked this effect”, the IL-10 in supernatants result is listed as “specifically blocked this effect” and the IL-13 in supernatants result was “specifically blocked this effect”.

For the compound “rGal1: recombinant Gal1 (galectin-1), a glycan-binding protein”, the “CD4+ CD25high FOXP3+ Treg population” value in the series on activated T cells [1] was “significantly increased”. The “apoptosis of total activated T cells” value in the series on normal activated T-cells is given as “induced apoptosis”. Besides, in the series with Th1-dependent responses (murine models of Th1-driven chronic inflammatory and autoimmune disorders), the cytokine profile result is given as “skewed towards Th2 cytokine profiles”. The Th1-dependent responses result in the series on Th1-dependent responses (listed as Gal1) was “dramatically suppressed”. Further, in the series with Th1-dependent responses (listed as recombinant Gal1), the Th1-dependent responses result was “suppressed”. For the same compound, the “T-cell susceptibility to activation-induced cell death” value with Th1-dependent responses (murine models of chronic inflammatory diseases) was “increased”. Besides, in the series on activated T cells [2], the IL-4 in supernatants entry is reported as “significantly higher amounts”, the IL-5 in supernatants result is “significantly higher amounts”, the IL-10 in supernatants entry is on record as “significantly higher amounts” and the IL-13 in supernatants entry is “significantly higher amounts”.

As for “Gal1 shRNA: pSIREN-RetroQ retroviral vector encoding Gal1-specific shRNA; target sequence GCTGCCAGATGGATACGAA (SEQ ID NO: 1) (DNA GATCCGCTGCCAGATGGATACGAATTCAAGAGATTCGTATCCATCTGGCAGCTTTTTTG)”, the Gal1 protein expression result in the series with Gal1 is listed as “can be blocked”. Further, in series [3], the “viable Th (CD4+) T cells” value was “significantly fewer viable total (CD3^+) and Th (CD4^+) T cells in control (SCR) HD-MY-Z co-cultures than in co-cultures of HD-MY-Z cells with Gal1 knockdown”; the “viable total (CD3+) T cells” value is “significantly fewer viable total (CD3^+) and Th (CD4^+) T cells in control (SCR) HD-MY-Z co-cultures than in co-cultures of HD-MY-Z cells with Gal1 knockdown”. Also, the “proliferation rate or viability of transduced HD-MY-Z cells” value in the series with HD-MY-Z cells is listed as “did not alter”. Further, in series [4], the “expression of GATA-3 (Th2-specific transcription factor)” value is “higher expression of GATA-3 than CD4^+ T cells from Gal1 shRNA HD-MY-Z co-cultures” and the “expression of T-bet (Th1-specific transcription factor)” value is on record as “control (SCR) HD-MY-Z cells exhibited significantly lower expression of T-bet”.
